According to patent US20050014280A1, “In vitro method for determining drug permeability using immobilized artificial membrane chromatography” (priority 2003, published 2005):
Read-outs that look alike come from different tables or passages of the source.

Assays:
Caco-2 cells = settings: cited from earlier work
[1] = Immobilized artificial membrane (IAM) HPLC capacity factor; assay type: physicochemical; settings: 37° C.; for k′IAM (capacity factor): 1.0 ml/min, from average of 3 runs
Procedure: Sample Preparation: Between 3 and 10 mg of each sample was dissolved in a solution of 10% methanol, 90% water in preparation for injection onto the column.
HPLC Conditions: A Regis IAM.PC.DD2 column (30 mm×4.6 mm, 12 μm) was used, run at 37° C. at a flow rate of 1.0 ml/min. […] Elution of reference compounds was detected by ultraviolet absorbance at 210 nm.
Calculation of k′: Sodium nitrate was injected onto the column and the elution time was measured in order to determine the time for the void volume, t0, to pass through the column. Each reference compound was then injected onto the column and retention time, tR was recorded by detecting elution by measuring UV absorbance at 210 nm. The capacity factor, k′, was calculated by determining the adjusted retention time and dividing by the time for void volume elution, according to the formula k′=(tR−t0)/t0.
Each reference compound was tested three times and an average retention time was used.

[2] = Caco-2 cell permeability assay (published Pm values); assay type: in vitro ADME; settings: human
Procedure: Drug permeability assays using Caco-2 cells are currently widely used. Caco-2 cells are human colon adenocarcinoma cells that differentiate in culture to resemble intestinal epithelial cells.
The inventors used 21 reference compounds having a single positive charge at the pH at which the chromatography was performed, each having a published known permeability value, Pm, as determined by a Caco-2 cell assay by the various methods set out in references 1-7, below. The conditions used to determine the Caco-2 Pm values were generally similar in the cited references, although certain conditions varied between assays. Generally, the assays were performed at pH 7.4, with the exception of procaine and sumatriptan, for which the pH was 5.5 and 6.5, respectively. Therefore, for the experiments set out below, the pH of the mobile phase was 7.4 for all compounds except procaine (pH 5.5) and sumatriptan (6.5).

[3] = mobile phase 85% 0.05 M ammonium phosphate pH 7.4 / 15% acetonitrile
[4] = mobile phase buffer pH 7.4 / 15% acetonitrile
[5] = Caco 2 donor pH 7.4, log of Pm in 10^−6 cm/s, read-out: Pm (converted)
[6] = mobile phase buffer pH 5.5 / 15% acetonitrile
[7] = mobile phase buffer pH 6.5 / 15% acetonitrile

k′IAM (capacity factor) [1, 3]	logk′IAM [1, 4]	Structure (SMILES)	Pm (Caco-2 cells; Caco 2 donor pH 7.4)	Pm of Caco-2 Assay (Caco-2 cells; published Caco-2 assay, pH 7.4)	other results
1.717	0.235	CC(C)(C)NCC(O)COc1cccc2c1CC(O)C(O)C2 (stereo not shown) [Nadolol]	3.88 10^−6 cm/s	3.88 +/− 10^−6 cm/s	Papp [2, 5]: 3.88 ×10⁻⁶ cm/s
		CCN(CC)CCOC(=O)c1ccc(N)cc1 [Procaine]			Pm (Caco-2 cells; Caco 2 donor pH 5.5): 1.94 10^−6 cm/s; Pm of Caco-2 Assay (Caco-2 cells; published Caco-2 assay, pH 5.5): 1.94 +/− 10^−6 cm/s; logk′IAM [1, 6]: −0.368; k′IAM (capacity factor) [1, 6]: 0.428; Papp ([2]; Caco 2 donor pH 5.5, log of Pm in 10^−6 cm/s, read-out: Pm (converted)): 1.94 ×10⁻⁶ cm/s
3.600	0.556	COCCc1ccc(OCC(O)CNC(C)C)cc1 (stereo not shown) [Metoprolol]	23.7 10^−6 cm/s	23.7 +/− 10^−6 cm/s	Papp ([2]; Caco-2, pH 7.4): 23.7 ×10⁻⁶ cm/s
19.190	1.283	C=CCc1ccccc1OCC(O)CNC(C)C (stereo not shown) [Alprenolol]	25.3 10^−6 cm/s	25.3 +/− 10^−6 cm/s	Papp [2, 5]: 25.3 ×10⁻⁶ cm/s
4.712	0.673	CC(C)NCC(O)COc1cccc2[nH]ccc12 (stereo not shown) [Pindolol]	16.7 10^−6 cm/s	16.7 +/− 10^−6 cm/s	Papp ([2]; Caco-2, pH 7.4): 16.7 ×10⁻⁶ cm/s
24.145	1.383	COc1ccc([C@@H]2Sc3ccccc3N(CCN(C)C)C(=O)[C@@H]2OC(C)=O)cc1 [Diltiazem]			
1.276	0.106	CC(C)(C)NCC(O)c1cc(O)cc(O)c1 (stereo not shown) [Terbutaline]	1.4 10^−6 cm/s	1.4 +/− 10^−6 cm/s	Papp [2, 5]: 1.4 ×10⁻⁶ cm/s
1.804	0.256	CCN1CCCC1CNC(=O)c1cc(S(N)(=O)=O)ccc1OC (stereo not shown) [Sulpiride]			
3.841	0.584	Clc1cccc(Cl)c1N=C1NCCN1 [Clonidine]	21.8 10^−6 cm/s	21.8 +/− 10^−6 cm/s	Papp ([2]; Caco-2, pH 7.4): 21.8 ×10⁻⁶ cm/s
91.053	1.959	CN(C)CCCN1c2ccccc2CCc2ccccc21 [Imipramine]			
		CNS(=O)(=O)Cc1ccc2[nH]cc(CCN(C)C)c2c1 [Sumatriptan]			Pm (Caco-2 cells; Caco 2 donor pH 6.5): 3 10^−6 cm/s; Pm of Caco-2 Assay (Caco-2 cells; published Caco-2 assay, pH 6.5): 3 10^−6 cm/s; logk′IAM [1, 7]: −0.077; k′IAM (capacity factor) [1, 7]: 0.837; Papp ([2]; Caco 2 donor pH 6.5, log of Pm in 10^−6 cm/s, read-out: Pm (converted)): 3 ×10⁻⁶ cm/s
31.148	1.493	CC(C)NCC(O)COc1cccc2ccccc12 (stereo not shown) [Propranolol]	32.5 10^−6 cm/s		Pm of Caco-2 Assay (Caco-2 cells; Caco-2, pH 7.4): 1.94 +/− 10^−6 cm/s; Papp ([2]; Caco-2, pH 7.4): 32.5 ×10⁻⁶ cm/s
1.232	0.091	CN/C(=C\[N+](=O)[O-])NCCSCc1ccc(CN(C)C)o1 [Ranitidine]	0.49 10^−6 cm/s	0.49 +/− 10^−6 cm/s	Papp [2, 5]: 0.49 ×10⁻⁶ cm/s
12.940	1.112	CC(CCc1ccccc1)NCC(O)c1ccc(O)c(C(N)=O)c1 (stereo not shown) [Labetalol]			
